Data on 15 molecules can be found in patent US20240051975A1 (TSINGHUA UNIVERSITY, priority 2020, published 2024).

The test system of assay [1] is cell death induced by the NAMPT inhibitor FK866. Kind of assay: Protection against cell death induced by the NAMPT inhibitor FK866 (Celltiter-Glo, cellular ATP). The format is cell-based. The following applies: AUC of dose-response curve (0.1-10 μM) relative to AUC of NAT; 10 nM FK866, 72 hours, cell viability by ATP. Here is the method: In the latter cell-based assay, we determined the degree of protection of NAT and derivatives thereof against the NAMPT inhibitor FK866. […] After 72 hours, Celltiter-Glo (Promega) was used to detect cellular ATP levels to reflect cell viability and normalized to the DMSO group. A dose-response curve was drawn to evaluate the cytoprotective activity of individual compounds against FK866. Then the area under the dose-response curve (AUC, area under curve) of each compound was calculated and compared with the AUC of NAT, so that the obtained relative value quantitatively expressed the cytoprotective activity of each compound.

In assay [2] the target is NAMPT (Homo sapiens, UniProt P43490). Kind of assay: NAMPT enzyme activity assay coupled with NMNAT1 and ADH (NADH fluorescence). The following applies: AUC of dose-response curve (0.1, 0.3, 1, 3, 10 μM) relative to AUC of NAT (NAT = 1); 1 μM NAMPT, 200 μM NAM.
NAMPT, sequence (P43490 whole entry, species assumed): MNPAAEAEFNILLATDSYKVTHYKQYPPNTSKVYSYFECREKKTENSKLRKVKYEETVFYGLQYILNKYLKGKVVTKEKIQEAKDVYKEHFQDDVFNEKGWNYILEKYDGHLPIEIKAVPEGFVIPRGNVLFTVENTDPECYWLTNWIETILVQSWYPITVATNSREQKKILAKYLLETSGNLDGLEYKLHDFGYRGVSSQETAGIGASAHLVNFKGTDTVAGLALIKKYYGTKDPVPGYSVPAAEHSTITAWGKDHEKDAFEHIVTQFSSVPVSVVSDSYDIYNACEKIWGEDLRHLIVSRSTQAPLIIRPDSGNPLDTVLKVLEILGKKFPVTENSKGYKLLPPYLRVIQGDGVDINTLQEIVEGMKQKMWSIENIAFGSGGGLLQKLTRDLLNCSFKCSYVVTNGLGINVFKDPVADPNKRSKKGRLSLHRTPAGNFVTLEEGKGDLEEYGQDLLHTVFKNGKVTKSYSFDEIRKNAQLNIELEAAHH
Method: The NAMPT enzyme activity was assayed by a method coupled with the three enzymes: NAMPT, NMNAT1 and alcohol dehydrogenase (ADH). NAMPT synthesizes NMN from NAM and PRPP, NMNAT1 synthesizes NAD from NMN produced in the first step, and ADH converts NAD into detectable fluorescent NADH. […] The reaction was initiated by adding 200 μM nicotinamide (NAM) and mixing gently. The enzyme activity of NAMPT was expressed as the concentration of NADH generated per minute (the molar value was equal to NAD). The relative enzyme activity of NAMPT in each compound-treated group was normalized by the value of the DMSO-treated group, and a dose-response curve was drawn to evaluate the effect of individual compounds on NAMPT enzyme activity. The area under the dose-response curve (AUC, area under curve) was then calculated for individual compound and compared to the AUC of NAT, so that the obtained relative value quantitative Eauc represented the enzyme activation activity of each compound, and the specific calculation formula was shown in FIG. 3.

Molecule `CC(C)(C)c1cccc(C(C)(C)C)c1OCC(=O)Nc1ccc(O)cc1` [Compound 18, 2-(2,6-di-tert-butylphenoxy)-N-(4-hydroxyphenyl)acetamide] registered a Relative cytoprotective activity in assay [1] of 0.04793. Further, the “Relative activation of NAMPT activity” value in assay [2] is reported as −0.142.
As for `Cc1cccc(OCC(=O)Nc2ccc(O)cc2)c1` [Compound 19, N-(4-hydroxyphenyl)-2-(m-tolyloxy)acetamide], the Relative cytoprotective activity in assay [1] is recorded as 0.09517. In addition, in assay [2], the “Relative activation of NAMPT activity” value came out at 0.1507.
In the same order, the values of `CC(C)(C)c1cccc(CNC(=O)Nc2ccc(O)cc2)c1` [Compound 20, 1-(3-tert-butyl)benzyl-3-(4-hydroxyl)phenylurea] are 0.135 and −0.1622.
In the case of `CC(C)(C)c1cccc(OCC(=O)NCc2ccc(O)cc2)c1` [Compound 22, 2-(3-(tert-butyl)phenoxy)-N-(4-hydroxybenzyl)acetamide], the Relative cytoprotective activity in assay [1] was determined as 0.1187. For the same molecule, the “Relative activation of NAMPT activity” value in assay [2] is listed as −0.2162.
`O=C(COc1ccccc1C(F)(F)F)Nc1ccc(O)cc1` [Compound 23, N-(4-hydroxyphenyl)-2-(2-(trifluoromethyl)phenoxy)acetamide] had a Relative cytoprotective activity in assay [1] of 0.2337. The “Relative activation of NAMPT activity” value in assay [2] was 0.2389.
On the same counts, the results for `CC(C)c1ccccc1OCC(=O)Nc1ccc(O)cc1` [Compound 24, N-(4-hydroxyphenyl)-2-(2-isopropylphenoxy)acetamide] are 0.5447 and 1.35.
As to `CC(C)(C)c1ccccc1OCC(=O)Nc1ccc(O)cc1Cl` [Compound 36, 2-(2-(tert-butyl)phenoxy)-N-(2-chloro-4-hydroxyphenyl)acetamide], the Relative cytoprotective activity in assay [1] came out at 0.06922. For the same molecule, in assay [2], the “Relative activation of NAMPT activity” value was 0.2583.
In the same order, the values of `CC(C)(C)c1ccccc1OCC(=O)Nc1ccc(O)cc1F` [Compound 40, 2-(2-(tert-butyl)phenoxy)-N-(2-fluoro-4-hydroxyphenyl)acetamide] are 0.1859 and 0.03898.
`CC(C)(C)c1ccccc1OCC(=O)Nc1ccc(O)c(F)c1` [Compound 41, 2-(2-(tert-butyl)phenoxy)-N-(3-fluoro-4-hydroxyphenyl)acetamide] returned a Relative cytoprotective activity in assay [1] of 0.9588. Besides, the “Relative activation of NAMPT activity” value in assay [2] turned out to be 0.1348.
In the case of `COc1ccc(OCC(=O)Nc2ccc(O)cc2)c(C(C)(C)C)c1` [Compound 51], the Relative cytoprotective activity in assay [1] stood at 1.402. Moreover, in assay [2], the “Relative activation of NAMPT activity” value turned out to be 1.382.
`CC(C)(C)c1cc(O)ccc1OCC(=O)Nc1ccc(O)cc1` [Compound 52] showed a Relative cytoprotective activity in assay [1] of 1.358. In assay [2], the “Relative activation of NAMPT activity” value was determined as 1.488.
`Cc1cccc(C(C)(C)C)c1OCC(=O)Nc1ccc(O)cc1` [Compound 53, 2-(2-(tert-butyl)-6-methylphenoxy)-N-(4-hydroxyphenyl)acetamide]: the Relative cytoprotective activity in assay [1] worked out at 0.571. The “Relative activation of NAMPT activity” value in assay [2] is given as 0.327.
`Cc1ccc(C(C)(C)C)c(OCC(=O)Nc2ccc(O)cc2)c1` [Compound 55, 2-(2-(tert-butyl)-5-methylphenoxy)-N-(4-hydroxyphenyl)acetamide] showed a Relative cytoprotective activity in assay [1] of 0.6623. Besides, the “Relative activation of NAMPT activity” value in assay [2] worked out at 0.1726.
On the same counts, the results for `CC(C)(C)c1cc(Cl)ccc1OCC(=O)Nc1ccc(O)cc1` [Compound 57, 2-(2-(tert-butyl)-4-chlorophenoxy)-N-(4-hydroxyphenyl)acetamide] are 1.099 and 0.3183.
On to `CC(C)(C)c1cccc(CO)c1OCC(=O)Nc1ccc(O)cc1` [Compound 58, 2-(2-(tert-butyl)-6-(hydroxymethyl)phenoxy)-N-(4-hydroxyphenyl)acetamide], for which the Relative cytoprotective activity in assay [1] is 0.8071. In addition, the “Relative activation of NAMPT activity” value in assay [2] came to 0.5159.
